Laboratory results reported in patent publication US12329822B2, “Antimicrobial tailored chitosan” (UNIVERSITÉ DE GENÈVE, priority 2019, dated 2025).

Experiments:
[1] = system: P. aeruginosa (PA01); experiment: Transmission electron microscopy (TEM) on P. aeruginosa; type: cell-based, Pseudomonas aeruginosa
Protocol: Method 1 for Example 2: Transmission Electron Microscopy (TEM) with A3-S—C1 on P. aeruginosa
Pseudomonas aeruginosa PAO1 in the exponential phase were washed with phosphate buffered saline (PBS) and treated with 5 μg/mL Polymyxin B, 40 μg/mL G3KL and 40 or 64 μg/mL […] in M63 minimal medium. Each time, 1 ml of the bacteria were centrifuged after 15, 30 and 60 min at 12′000 rpm for 3 min and fixed overnight with 2.5% glutaraldehyde (Agar Scientific, Stansted, Essex, UK) in 0.15 M HEPES (Fluka, Buchs, Switzerland) with an osmolarity of 670 mOsm and adjusted to a pH of 7.35. The next day, PAO1 were washed with 0.15 M HEPES three times for 5 min, post fixed with 1% OsO4 (SPI Supplies, West Chester, USA) in 0.1 M Na-cacodylate-buffer (Merck, Darmstadt, Germany) at 4° C. for 1 h. Thereafter, bacteria were washed in 0.1 M Na-cacodylate-buffer three times for 5 min and dehydrated in 70, 80, and 96% ethanol (Alcosuisse, Switzerland) for 15 min each at room temperature. Subsequently, they were immersed in 100% ethanol (Merck, Darmstadt, Germany) three times for 10 min, in acetone (Merck, Darmstadt, Germany) two times for 10 min, and finally in acetone-Epon (1:1) overnight at room temperature. The next day, bacteria were embedded in Epon (Fluka, Buchs, Switzerland) and hardened at 60° C. for 5 days. […]

[2] = system: C. albicans; conditions: native peptide; cited from earlier work
[3] = system: E. coli; conditions: native peptide; cited from earlier work
[4] = system: P. aeruginosa; conditions: native peptide; cited from earlier work
[5] = system: S. aureus; conditions: native peptide; cited from earlier work
[6] = system: M. tuberculosis; conditions: native peptide; cited from earlier work

Polymyxin B
Effect on bacterial membranes (TEM imaging) [1]: attacks only the outer membrane of the bacteria
Effect on P. aeruginosa (PA01) ([1]; TEM, concentration 5 μg/mL): Attack on the outer membrane

OP-145: linear AMP IGKEFKRIVERIKRFLRELVRPLR (SEQ ID NO: 12) (AMP)
MIC [2]: 18.3 µg/mL
MIC [3]: 6.1 to 9.2 µg/mL
MIC [4]: 9.2 to 18.3 µg/mL

IDR-1018: linear AMP VRLIVAVRIWRR (SEQ ID NO: 9) (AMP)
MIC [4]: 19 µg/mL
MIC [5]: 5 µg/mL
MIC [6]: 16 µg/mL
